# Assays:
# [1] = tested on: Gata1^low mice; assay: Flow cytometry of CD115-/CD41+ megakaryocytes in bone marrow of Gata1^low mice; settings: 72 mg/kg/day captopril from 10 to 12 months, euthanized at 13 months, untreated Gata1^low 1.45%, wild type 0.5%, p<0.05
# [2] = tested on: Gata1^low mice; assay: Bone marrow histology and myelofibrosis (reticulin) scoring in Gata1^low mice; format: in vivo, mouse
# Procedure: (§1) All animal handling procedures were performed in compliance with guidelines from the National Research Council for the ethical handling of laboratory animals and were approved by the Uniformed Services University of the Health Sciences Institutional Animal Care and Use Committee. Male and female Gata1^low and wild type CD1 mice were purchased from Jackson Laboratories (Bar Harbor, Me.). Quantitative PCR confirmed low expression of Gata1. The mice were crossed to a CD1 background to establish a line of homozygous mutant mice. Mice were kept in a barrier facility for animals accredited by the Association for Assessment and Accreditation of Laboratory Animal Care International. Mice were housed in groups of four. Animal rooms were maintained at 21±2° C., 50%±10% humidity, and 12-hour light/dark cycle with commercial, freely-available rodent ration (Harlan Teklad Rodent Diet 8604, Frederick, Md., USA).
# (§2) HEMATOL. 2010; 38: 270-81. […] 2005; 29: 30-6. Based on previously measured volumes of water consumed per day by the mice, the daily water consumption was determined to be a dose of […] [Davis et al., 2010]. Control animals received acidified water (vehicle) without captopril. Animals were euthanized at 13 months of age.
# (§3) Tissues were paraffin blocked and stained using standard methods for hematoxylin and eosin (H&E), Masson's trichrome, and Gomori's reticulin stain by Histoserve (Germantown, Md.). Stained slides were evaluated by a pathologist who was blinded to the identity of the treatment groups and using a published system for scoring myelofibrosis [Kvasnicka, H. M., Problems and pitfalls in grading of bone marrow fibrosis, collagen deposition and osteosclerosis—a consensus-based study, HISTOPATHOLOGY 2016; 68: 905-15]. Bone marrow sections were digitally scanned using the Zeiss Axioscan, and images were produced with Zen Lite software (Carl Zeiss, USA).
# To determine the efficacy of captopril in reversing MF, morphologic and phenotypic changes in the Gata1^low mouse model were evaluated. […]
# [3] = tested on: Gata1^low mice; assay: Peripheral complete blood counts with differentials in Gata1^low mice; format: in vivo, mouse; settings: 72 mg/kg per day captopril in drinking water from 10 to 12 months, euthanized at 13.5 months
# Excerpt: HEMATOL. […] Control animals received acidified water (vehicle) without captopril.
# Separate mice were used for each point (n=5-6 per group).
# Peripheral blood counts were studied in captopril-treated and untreated Gata1^low mice and their wild-type littermates. […] Complete blood cell counts with differentials were obtained.
# [4] = tested on: Gata1^low mice; assay: Spleen histology and spleen weight in Gata1^low mice; format: in vivo, mouse
# Procedure: as §1, §2, §3
# Levels of megakaryocytes and extramedullary hematopoiesis were compared in the spleens of wild-type, untreated Gata1^low, and captopril-treated Gata1^low mice. […]
# [5] = tested on: Gata1^low mice; assay: Flow cytometry of megakaryocytes in spleen of Gata1^low mice; settings: captopril treatment, p<0.05
# [6] = tested on: mice exposed to total body radiation; settings: mice exposed to total body radiation (Davis et al. 2010); cited from earlier work
# [7] = tested on: Gata1^low mice; assay: qRT-PCR of CD41, CD61, Col1a, Col3a2 mRNA in femur bone marrow of Gata1^low mice; settings: 72 mg/kg/day captopril, vs untreated mice, p<0.05
# [8] = tested on: Gata1^low mice; assay: qRT-PCR of CD41, CD61, Col1a, Col3a2 mRNA in spleen-derived cells of Gata1^low mice; settings: captopril treated Gata1^low mice
# [9] = tested on: C57BL/6 mice exposed to 7.9 Gy total body 60Co irradiation; assay: Serum growth factor and cytokine levels (MSD/ELISA) after 7.9 Gy total body irradiation; settings: 7.9 Gy TBI
smiles,measurement,setting,value
C[C@H](CS)C(=O)N1CCC[C@H]1C(=O)O [captopril],number of CD115-/CD41+ megakaryocytes in bone marrow,[1],0.6 % of total live cells
same,megakaryocytic hyperplasia in bone marrow (histology),"[2]; captopril for two months (10-12 months of age), evaluated at 13 months, untreated Gata1^low: moderate",only mild megakaryocytic hyperplasia
same,averaged bone marrow reticulin score,"[2]; captopril for two months, score out of 3, untreated Gata1^low 1.8, wild type 0",0.5
same,severity of bone marrow fibrosis (histology),"[2]; captopril in drinking water (79 mg/kg/day) from 10-12 months of age, evaluated at 13 months, vs untreated Gata1^low",reduced the severity off bone marrow fibrosis
same,platelet count,[3],did not ameliorate
same,eosinophils,[3]; vs untreated Gata1^low,normalized
same,lymphocytes,[3]; vs untreated Gata1^low,normalized
same,neutrophils,[3]; vs untreated Gata1^low,normalized
same,white blood cells (WBC),[3]; vs untreated Gata1^low,normalized
same,decrease in splenic weight,"[4]; captopril for 2 months, vs untreated Gata1^low mice, p<0.05",~2 fold
same,extramedullary hematopoiesis in spleen (histology),"[4]; captopril for two months, untreated Gata1^low: significant",moderate amounts of extramedullary hematopoiesis
same,atypical megakaryocytes in spleen (histology),"[4]; captopril for two months, vs untreated Gata1^low",reduced numbers of atypical megakaryocytes
same,"decrease in the frequency of megakaryocytes as a percentage of total live cells, spleen",[5],~2 fold
same,"blood cell recovery (red blood cells, reticulocytes, platelets) and recovery of colony forming units (CFU-GM, CFU-M, total)",[6],improving blood cell recovery
same,survival rates,[6],improved survival rates
same,"decrease of CD41 marker (qRT-PCR), bone marrow",[7],approximately 3 fold
same,"decrease of CD61 marker (qRT-PCR), bone marrow",[7],~2 fold
same,"decrease of Col1a expression, bone marrow",[7],approximately 15 fold
same,"decrease of Col3a2 expression, bone marrow",[7],approximately 4 fold
same,"Col3a2 expression (qPCR), spleen",[8],"trend toward reduced Col3a2 expression, although this did not reach significance"
same,"decrease of CD41 marker (qRT-PCR), spleen",[8]; p<0.05,about 6 fold
same,"decrease of CD61 marker (qRT-PCR), spleen",[8]; p<0.05,about 5 fold
same,"reduction in the level of Col1a expression (qPCR), spleen",[8]; p<0.05,~4 fold
same,increase in serum EPO,"[9]; 4 days post-irradiation, captopril 13 mg/kg/day in drinking water, same with or without captopril",~10 fold
same,serum EPO level,"[9]; 7 days post-irradiation, captopril 13 mg/kg/day, radiation-plus-vehicle 8.66±0.9, mean±SEM",0.57 ± 0.7 ng/mL
same,serum EPO level,"[9]; 14 days post-irradiation, captopril 13 mg/kg/day, radiation-plus-vehicle 288±140, mean±SEM",140 ± 24 ng/mL
same,serum EPO level,"[9]; 21 days post-irradiation, captopril vs vehicle irradiated group",similarly elevated
same,IL-6 levels post-irradiation,"[9]; any time points (3-30 days), captopril 13 mg/kg/day",did not significantly suppress
same,serum EPO level,"[9]; by 30 days post-irradiation, captopril-treated animals",declined sharply
same,radiation induced G-CSF,"[9]; days 7 and 14 post-irradiation, captopril 13 mg/kg/day from 48 hours post-irradiation for 14 days, p<0.05 vs vehicle",significantly suppressed
same,radiation-induced SAA1 levels,"[9]; days 7 and 14 post-irradiation, delayed (48 hours) low-dose captopril 13 mg/kg/day, p<0.05 vs vehicle",significantly attenuated

# Source: patent US20210113524A1, “METHODS OF TREATING MYELOPROLIFERATIVE DISORDERS” (The Henry M. Jackson Foundation for the Advancement of …, priority 2018, published 2021)
